# Where “and” joins values, the source holds several entries; their conditions need not be identical. Equal entries are not always repeated. After the bases stand the sugars from the 5' end (letter, count) and the backbone: PS all phosphorothioate, else s phosphorothioate and o phosphodiester by linkage. Methylation of C is not given here. e = 2'-O-(2-methoxyethyl) (MOE); k = constrained ethyl (cEt); d = 2'-deoxy (DNA)
# Biological target: IRF4
# Conditions: ASO, MM.1R, 0.074 µM
row,Sequence,target mRNA inhibition
1,"TCTATAGTGTTCCAGG (sugars kkdddddddddekeke, PS)",5%
2,"GTTGTAAATGAGTCGG (sugars e1 k2 d9 k2 e2, PS)",17%

# Same assay, conditions: ASO, MM.1R, 0.222 µM
row,Sequence,target mRNA inhibition
1,"TCTATAGTGTTCCAGG (sugars kkdddddddddekeke, PS)",17%
2,"GTTGTAAATGAGTCGG (sugars e1 k2 d9 k2 e2, PS)",38%

# Same assay, conditions: ASO, MM.1R, 0.666 µM
row,Sequence,target mRNA inhibition
1,"TCTATAGTGTTCCAGG (sugars kkdddddddddekeke, PS)",37%
2,"GTTGTAAATGAGTCGG (sugars e1 k2 d9 k2 e2, PS)",57%

# Same assay, conditions: ASO, MM.1R, 1 µM
row,Sequence,target mRNA inhibition
1,"ATTATATACTGGTTGG (sugars kkddddddddddkeke, PS)",32%
2,"GAGCCAGAGCAGTAAA (sugars k3 d10 k3, PS)",-2%
3,"TAGTATGAGAAACGGC (sugars e1 k2 d9 k2 e2, PS)",38%
4,"GCATTTTATCATCCGA (sugars kkddddddddddkeke, PS)",39%
5,"CACATCAATGTTTTAG (sugars kkdddddddddekeke, PS)",28% and 27%
6,"ATAGAGCATCACTATT (sugars k3 d10 k3, PS)",0%
7,"GTTGGCTGGTCTTTGT (sugars kdddddddddkekeke, PS)",18%
8,"AAGCATTTTATCATCC (sugars kkdddddddddekeke, PS)",25%
9,"CGTGTGCTTGCCAAGC (sugars kdddddddddkekeke, PS)",24% and 11%
10,"TCTATAGTGTTCCAGG (sugars kkdddddddddekeke, PS)",56% and 50%
11,"TGTGATAGCTGAGCTG (sugars k2 d9 e3 k2, PS)",12%
12,"GTTGTACAGGACAGGT (sugars k3 d10 k3, PS)",33%
13,"CAGTGACTTGCATCCA (sugars kddddddddddkekek, PS)",29%
14,"CTCTATAGTGTTCCAG (sugars kkdddddddddkdkdk, PS)",31%
15,"CTTGGCAGGGAGCGGC (sugars k3 d10 k3, PS)",25%
16,"GCTAACTTACAGGACT (sugars k3 d10 k3, PS)",-8%
17,"CCCGACCCTCCCCAAC (sugars k3 d10 k3, PS)",-35%
18,"ATGTGATAGCTGAGCT (sugars kdddddddddkekeke, PS)",15%
19,"ACTGCCGTGATCTGAG (sugars k3 d10 k3, PS)",34% and 29%
20,"TTGGTTGGCTGGTCTT (sugars kddddddddddkekek, PS)",34%
21,"TAGGCACATCAATGTT (sugars k3 d10 k3, PS)",12%
22,"AGTTGTAAATGAGTCG (sugars kddddddddddkekek, PS)",44%

row,Sequence,target mRNA inhibition
1,"ACACTTTTAGAGAGGA (sugars kkdddddddddkdkdk, PS)",3%
2,"TCCACTACCATATTGG (sugars k3 d10 k3, PS)",-29%
3,"CTCTATAGTGTTCCAG (sugars kkkdddddddddkeke, PS)",49%
4,"GTCATTGCTCTTGTTC (sugars k3 d10 k3, PS)",18%
5,"AAGTTCATGTAAAGTC (sugars kddddddddddkekek, PS)",14% and 6%
6,"CACTCTTACTCCGCTG (sugars k3 d10 k3, PS)",-12%
7,"GTTGTAAATGAGTCGG (sugars e1 k2 d9 k2 e2, PS)",69%
8,"ATGTGTATTACTCTTA (sugars kkdddddddddekeke, PS)",60% and 61%
9,"TATCATCCGAAAAGAC (sugars k3 d10 k3, PS)",3%
10,"TCAGAATGTTTCGACA (sugars k3 d10 k3, PS)",6%
11,"TATTTATGAGCTTCCA (sugars k3 d10 k3, PS)",21%
12,"GTGATAGCTGAGCTGA (sugars kkdddddddddekeke, PS)",24%
13,"AAGCATTTTATCATCC (sugars kkdddddddddkekek, PS)",18%
14,"TGTGGTTTCACATGAT (sugars k3 d10 k3, PS)",21%
15,"CTCTTCAGGCACCCAC (sugars k3 d10 k3, PS)",13%
16,"TGCTCACTAAGCTTGA (sugars k3 d10 k3, PS)",12%
17,"CTGTTACCGATGCTTC (sugars k2 d9 e3 k2, PS)",64% and 56%
18,"TGTTCAGAAACCCTCA (sugars k3 d10 k3, PS)",-15%
19,"TTCATGTAAAGTCTGC (sugars kddddddddddkekek, PS)",2% and -18%
20,"CTGCCACTGGTAACTG (sugars k3 d10 k3, PS)",21%
21,"GTAGTATGAGAAACGG (sugars kddddddddddkekek, PS)",46%
22,"GATCCTGAGAGTAAAC (sugars k3 d10 k3, PS)",6%

# Same assay, conditions: ASO, MM.1R, 2 µM
row,Sequence,target mRNA inhibition
1,"TCTATAGTGTTCCAGG (sugars kkdddddddddekeke, PS)",68%
2,"GTTGTAAATGAGTCGG (sugars e1 k2 d9 k2 e2, PS)",79%

# Same assay, conditions: ASO, SK-MEL-28, 0.185 µM
row,Sequence,target mRNA inhibition
1,"GTTGTCTGGCTAGCAG (sugars k3 d10 k3, PS)",20%

# Same assay, conditions: ASO, SK-MEL-28, 4 µM
row,Sequence,target mRNA inhibition
1,"CACTACCATATTGGAA (sugars k3 d10 k3, PS)",22%
2,"GTGGAACTCATAGGTG (sugars k3 d10 k3, PS)",53%
3,"GGGCAGTCAATTGGAC (sugars k3 d10 k3, PS)",25%
4,"CTGTATTTATGCCCTC (sugars k3 d10 k3, PS)",60%
5,"CCTACTGGGTACATGG (sugars k3 d10 k3, PS)",63%
6,"TCGGAGCTGAGGGCAG (sugars k3 d10 k3, PS)",18%
7,"GTGATAGGTATACTTA (sugars k3 d10 k3, PS)",65%
8,"AAGCCGTTCCTTTTCA (sugars k3 d10 k3, PS)",29%
9,"GTTGTCTGGCTAGCAG (sugars k3 d10 k3, PS)",59%
10,"GTTGCATGGCTAATGA (sugars k3 d10 k3, PS)",61%
11,"GCCAAGACCAGCTCTT (sugars k3 d10 k3, PS)",30%
12,"CTGTATCATGCATACC (sugars k3 d10 k3, PS)",61%
13,"AACAGAGACGCGGTGA (sugars k3 d10 k3, PS)",10%
14,"TTAGCAATTCCTGTTG (sugars k3 d10 k3, PS)",20%
15,"TATATAGAATTAGGTG (sugars k3 d10 k3, PS)",-16%
16,"TATCAAAGATCTCCAC (sugars k3 d10 k3, PS)",25%
17,"TCAGACAGTGCGCCCC (sugars k3 d10 k3, PS)",26%
18,"ACTGACCTTTACTTCA (sugars k3 d10 k3, PS)",43%
19,"GTACACAAGACAAATC (sugars k3 d10 k3, PS)",21%
20,"AGCAAAACGCAGAGCC (sugars k3 d10 k3, PS)",61%
21,"GGGAAGTGGACCCCAT (sugars k3 d10 k3, PS)",9%

row,Sequence,target mRNA inhibition
1,"GTCCCTCCAGCTTCGG (sugars k3 d10 k3, PS)",3%
2,"GGCGACCCCGTCGCAG (sugars k3 d10 k3, PS)",30%
3,"CCAAGGCTACAGGCAC (sugars k3 d10 k3, PS)",63%
4,"TGTATACATCACTGCA (sugars k3 d10 k3, PS)",63%
5,"GACTCGGAGCTGAGGG (sugars k3 d10 k3, PS)",23%
6,"GGTACATGGCAGTGGA (sugars k3 d10 k3, PS)",87%
7,"TGCATCTATAAGATGT (sugars k3 d10 k3, PS)",32%
8,"CCCCGAATAGGACCCC (sugars k3 d10 k3, PS)",56%
9,"CTAGAAAGTGATGCTC (sugars k3 d10 k3, PS)",39%
10,"TGTATAGTTCTCAACC (sugars k3 d10 k3, PS)",43%
11,"GTAACTAACTCAAAAG (sugars k3 d10 k3, PS)",-1%
12,"ACATTACTGAGATATC (sugars k3 d10 k3, PS)",16%
13,"AACCAGTACAGTCCAC (sugars k3 d10 k3, PS)",35%
14,"CTAAGCTTGATAAAGG (sugars k3 d10 k3, PS)",54%
15,"AAAGTCCCATCGAATC (sugars k3 d10 k3, PS)",13%
16,"ACCAGAACTAATGTCC (sugars k3 d10 k3, PS)",32%
17,"AGCTAACTGGCCTCAA (sugars k3 d10 k3, PS)",23%
18,"TGGCACAGACATACCT (sugars k3 d10 k3, PS)",38%
19,"TGGTAACAATACTGTA (sugars k3 d10 k3, PS)",65%
20,"ATTTCATAGCTAGTTC (sugars k3 d10 k3, PS)",44%
21,"ACTACTATTGTGGAAA (sugars k3 d10 k3, PS)",18%

row,Sequence,target mRNA inhibition
1,"GGGACCCACGGACGGA (sugars k3 d10 k3, PS)",9%
2,"CCTGGGACTCAGGTGG (sugars k4 d8 k4, PS)",7%
3,"ATGGAAATACGACAAC (sugars k3 d10 k3, PS)",35%
4,"ATTCATGATGTATACC (sugars k3 d10 k3, PS)",62%
5,"CTAAACTCCTAAGTAC (sugars k3 d10 k3, PS)",14%
6,"TCACAGAGCCAACTTA (sugars k3 d10 k3, PS)",-12%
7,"TGGAATCTTGGCAGGG (sugars k3 d10 k3, PS)",40%
8,"AAGACCCCGTATCCCC (sugars k3 d10 k3, PS)",42%
9,"ACGCACACACAAGTGG (sugars k3 d10 k3, PS)",59%
10,"AACCAATCCCAACACT (sugars k3 d10 k3, PS)",12%
11,"TTTGTACGGGTCTGAG (sugars k3 d10 k3, PS)",20%
12,"TTAAACAGCACTCAGA (sugars k3 d10 k3, PS)",33%
13,"CCAGGTTCATGCCCCG (sugars k3 d10 k3, PS)",54%
14,"TGACTCCATGAGGTTT (sugars k3 d10 k3, PS)",65%
15,"GGTGAGCACCGCGCCG (sugars k3 d10 k3, PS)",-8%
16,"GAGAAACGAGCCAGTG (sugars k3 d10 k3, PS)",39%
17,"GGCCATCCAGAGGACC (sugars k3 d10 k3, PS)",25%
18,"CCCAAAGAGAGTGGGT (sugars k3 d10 k3, PS)",0%
19,"ACATGGCAGTGGAGCT (sugars k3 d10 k3, PS)",64%

# Same assay, conditions: ASO, SK-MEL-28, 5 µM
row,Sequence,target mRNA inhibition
1,"GTTGTCTGGCTAGCAG (sugars k3 d10 k3, PS)",70%

# Same assay, conditions: ASO, SK-MEL-28, 15 µM
row,Sequence,target mRNA inhibition
1,"GTTGTCTGGCTAGCAG (sugars k3 d10 k3, PS)",89%

# From the OligoGym collection
